Laboratory results as given in US20240116985A1, “STAPLED PEPTIDES AND METHODS THEREOF” (priority 2020, published 2024).
Where two headings read alike, the source gives them in different places.

Columns and labels:
CHI Log D procedure = format: physicochemical; conditions: for CHI Log D: pH 7.4; for chromatographic logD: pH 7.4, CHI Log D
[1] = target: T1, beta-catenin/TCF4 engagement (Homo sapiens, UniProt P35222); assay: Nano-BRET target engagement assay (B-cat-Halo & TCF4-Luc in HEK293 cells); format: cell-based
T1 construct: expressed in transfected cells; host or cells: HEK293
T1 sequence (P35222 1-781): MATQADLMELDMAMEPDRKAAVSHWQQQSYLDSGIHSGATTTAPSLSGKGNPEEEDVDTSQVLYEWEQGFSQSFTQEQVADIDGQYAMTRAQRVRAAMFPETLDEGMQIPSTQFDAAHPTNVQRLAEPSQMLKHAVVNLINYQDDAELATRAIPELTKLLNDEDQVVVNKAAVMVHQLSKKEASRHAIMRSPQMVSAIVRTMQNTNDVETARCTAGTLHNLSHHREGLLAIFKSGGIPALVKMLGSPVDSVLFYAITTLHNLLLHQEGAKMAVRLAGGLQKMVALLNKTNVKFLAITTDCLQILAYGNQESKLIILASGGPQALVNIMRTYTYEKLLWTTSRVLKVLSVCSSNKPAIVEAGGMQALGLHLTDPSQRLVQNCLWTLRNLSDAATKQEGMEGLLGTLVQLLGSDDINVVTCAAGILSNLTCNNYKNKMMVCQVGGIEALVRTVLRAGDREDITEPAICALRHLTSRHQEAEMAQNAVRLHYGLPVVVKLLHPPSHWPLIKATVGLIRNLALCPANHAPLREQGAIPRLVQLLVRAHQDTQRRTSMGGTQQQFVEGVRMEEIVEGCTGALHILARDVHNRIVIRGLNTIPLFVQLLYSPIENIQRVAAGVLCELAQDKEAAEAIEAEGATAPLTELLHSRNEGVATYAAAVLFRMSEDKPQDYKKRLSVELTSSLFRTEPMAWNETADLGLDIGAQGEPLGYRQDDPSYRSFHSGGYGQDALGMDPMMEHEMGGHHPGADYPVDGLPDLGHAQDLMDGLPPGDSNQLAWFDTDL

[2] = target: T2, full-length beta-Catenin (Uniprot ID P35222) (Homo sapiens, UniProt P35222); assay: Fluorescence polarization IC50 (beta-catenin / 5FAM-TCF4 10-53 competition); format: binding
T2 construct: 10 nM full-length beta-Catenin (Uniprot ID P35222)
T2 sequence (P35222 1-781): T1 sequence (P35222 1-781)

[3] = fluorescence polarization, beta-catenin, read-out: FP EC50
[4] = absolute IC50, read-out: NanoBRET Abs IC50

| SMILES | CHI Log D (CHI Log D procedure) | IC50 ([1]; read-out: NanoBRET Abs IC50) | IC50 [2, 3] | IC50 ([2]; read-out: beta-Catenin FP IC50) | chromatographic logD (CHI Log D procedure) | IC50 [1, 4] | inhibition at 10 µM ([1]; HEK293, 10 uM, read-out: NanoBRET % inh @ 10 uM) | IC50 ([1]; read-out: NanoBRET IC50) |
| --- | --- | --- | --- | --- | --- | --- | --- | --- |
| CC(=O)N1CCC[C@]12CC=CCCCC1(CCCC=CCCCOC(=O)N3CC[C@@](C(=O)N[C@@H](Cc4cccc(Cl)c4)C(=O)N[C@@H](Cc4csc5ccccc45)C(=O)N[C@@H](CCC(N)=O)C(N)=O)(C3)NC(=O)[C@H](CC(N)=O)NC(=O)[C@H](Cc3ccccc3)NC(=O)[C@H](C)NC(=O)[C@H](C)NC(=O)[C@H](CN(CC(=O)O)CC(F)(F)F)NC(=O)[C@H](CC(=O)O)NC1=O)NC(=O)[C@H](CC(C)(C)C)NC(=O)[C@H](CC(=O)O)NC2=O (stereo partly drawn) [I-925, Ac-PL3-Asp-Npg-B5-Asp-TfeGA-Ala-Ala-Phe-Asn-PyrS2-3C1F-BztA-Gln-NH2] | 2.344 | 20 µM | 21 nM | 21 nM | – | – | – | – |
| CC(=O)N1CCC[C@]12CC=CCCCC1(CCCC=CCCCCCC[C@@](C)(C(=O)N[C@@H](Cc3ccccc3Cl)C(=O)N[C@@H](Cc3csc4ccccc34)C(=O)N[C@@H](CCC(N)=O)C(N)=O)NC(=O)[C@H]([C@@H](C)O)NC(=O)[C@H](Cc3ccccc3)NC(=O)[C@H](C)NC(=O)[C@H](C)NC(=O)[C@H](CC(=O)O)NC(=O)[C@H](CC(=O)O)NC1=O)NC(=O)[C@H](CC(C)(C)C)NC(=O)[C@H](CC(=O)O)NC2=O (stereo partly drawn) [I-1086, Ac-PL3-Asp-Npg-B5-Asp-Asp-Ala-Ala-Phe-Thr-S8-2C1F-BztA-Gln-NH2] | 2.709 | 10.1 µM | 12 nM | 12 nM | – | – | – | – |
| CC[C@H](C)[C@@H]1NC(=O)[C@H](CN(CC(=O)O)CC(F)(F)F)NC(=O)[C@H](CC(=O)O)NC(=O)C2(CCCC=CCCCOC(=O)N3CC[C@@](C(=O)N[C@@H](Cc4ccccc4Cl)C(=O)N[C@@H](Cc4csc5ccccc45)C(=O)N[C@@H](CCC(N)=O)C(N)=O)(C3)NC(=O)[C@H](CC(N)=O)NC(=O)[C@H](Cc3ccccc3)NC(=O)[C@H](C)NC1=O)CCCC=CC[C@]1(CCCN1C(C)=O)C(=O)N[C@@H](CC(=O)O)C(=O)N[C@@H](CC(C)(C)C)C(=O)N2 (stereo partly drawn) [I-1010, Ac-PL3-Asp-Npg-B5-Asp-TfeGA-Ile-Ala-Phe-Asn-PyrS2-2C1F-BztA-Gln-NH2] | – | – | – | 8 nM | 2.36 | 13.3 µM | – | – |
| CC(=O)N1CCC[C@]12CC=CCCCC1(CCCC=CCCCOC(=O)N3CC[C@@](C(=O)N[C@@H](Cc4ccsc4)C(=O)N[C@@H](Cc4csc5ccccc45)C(=O)N[C@@H](CCC(N)=O)C(N)=O)(C3)NC(=O)[C@H](Cc3ccccc3)NC(=O)[C@H](Cc3ccccc3)NC(=O)[C@H](C)NC(=O)[C@H](C)NC(=O)[C@H](CN(CC(=O)O)CC(F)(F)F)NC(=O)[C@H](CC(=O)O)NC1=O)NC(=O)[C@H](CC(C)(C)C)NC(=O)[C@H](CC(=O)O)NC2=O (stereo partly drawn) [I-848, Ac-PL3-Asp-Npg-B5-Asp-TfeGA-Ala-Ala-Phe-Phe-PyrS2-3Thi-BztA-Gln-NH2] | – | – | – | 13 nM | 2.46 | 7 µM | – | – |
| CC(=O)N1CCC[C@]12CC=CCCCC1(CCCC=CCCCOC(=O)N3CC[C@@](C(=O)N[C@@H](Cc4ccsc4)C(=O)N[C@@H](Cc4c[nH]c5ccc(F)cc45)C(=O)N[C@@H](Cc4c[nH]cn4)C(N)=O)(C3)NC(=O)[C@H](CC(N)=O)NC(=O)[C@H](Cc3ccccc3)NC(=O)[C@H](C)NC(=O)[C@H](C)NC(=O)[C@H](CC(=O)O)NC(=O)[C@H](CC(=O)O)NC1=O)NC(=O)[C@H](CC(C)(C)C)NC(=O)[C@H](CC(=O)O)NC2=O (stereo partly drawn) [I-800, Ac-PL3-Asp-Npg-B5-Asp-Asp-Ala-Ala-Phe-Asn-PyrS2-3Thi-5FW-His-NH2] | – | – | – | 79 nM | 2 | – | 8.1% | – |
| CC(=O)N1CCC[C@]12CC=CCCCC1(CCCC=CCCCOC(=O)N3CC[C@@](C(=O)N[C@@H](Cc4ccccc4Cl)C(=O)N[C@@H](Cc4csc5ccccc45)C(=O)N[C@@H](CCC(N)=O)C(N)=O)(C3)NC(=O)[C@H](CC(N)=O)NC(=O)[C@H](Cc3ccccc3)NC(=O)[C@H](C)NC(=O)[C@H](CO)NC(=O)[C@H](CN(CC(=O)O)CC(F)(F)F)NC(=O)[C@H](CC(=O)O)NC1=O)NC(=O)[C@H](CC(C)(C)C)NC(=O)[C@H](CC(=O)O)NC2=O (stereo partly drawn) [I-1009, Ac-PL3-Asp-Npg-B5-Asp-TfeGA-Ser-Ala-Phe-Asn-PyrS2-2C1F-BztA-Gln-NH2] | – | – | – | 11 nM | 2.04 | 33.3 µM | – | – |

Second part, the compound after the results:

| CHI Log D (CHI Log D procedure) | IC50 ([1]; read-out: NanoBRET Abs IC50) | IC50 [2, 3] | IC50 ([2]; read-out: beta-Catenin FP IC50) | chromatographic logD (CHI Log D procedure) | IC50 [1, 4] | inhibition at 10 µM ([1]; HEK293, 10 uM, read-out: NanoBRET % inh @ 10 uM) | IC50 ([1]; read-out: NanoBRET IC50) | SMILES |
| --- | --- | --- | --- | --- | --- | --- | --- | --- |
| 2.711 | > 20 µM | 36 nM | 36 nM | – | – | – | – | CC(=O)N1CCC[C@]12CC=CCCCC1(CCCC=CCCCOC(=O)N3CC[C@@](C(=O)N[C@@H](Cc4ccsc4)C(=O)N[C@@H](Cc4csc5ccccc45)C(N)=O)(C3)NC(=O)[C@H](CC(N)=O)NC(=O)[C@H](Cc3ccccc3)NC(=O)[C@H](C)NC(=O)[C@H](C)NC(=O)[C@H]([C@@H](C)O)NC(=O)[C@H](CC(=O)O)NC1=O)NC(=O)[C@H](CC(C)(C)C)NC(=O)[C@H](CC(=O)O)NC2=O (stereo partly drawn) [I-859, Ac-PL3-Asp-Npg-B5-Asp-Thr-Ala-Ala-Phe-Asn-PyrS2-3Thi-BztA-NH2] |
| 2.042 | 38.5 µM | 15 nM | 15 nM | – | – | – | – | CC(=O)N1CCC[C@]12CC=CCCCC1(CCCC=CCCCCOC(=O)N3CC[C@@](C(=O)N[C@@H](Cc4ccsc4)C(=O)N[C@@H](Cc4csc5ccccc45)C(=O)N[C@@H](CCC(N)=O)C(=O)N[C@H](C)C(N)=O)(C3)NC(=O)[C@H](CC(N)=O)NC(=O)[C@H](Cc3ccccc3)NC(=O)[C@H](C)NC(=O)[C@H](C)NC(=O)[C@H](CC(=O)O)NC(=O)[C@H](CC(=O)O)NC1=O)NC(=O)[C@H](CC(C)(C)C)NC(=O)[C@H](CC(=O)O)NC2=O (stereo partly drawn) [I-830, Ac-PL3-Asp-Npg-B5-Asp-Asp-Ala-Ala-Phe-Asn-PyrS3-3Thi-BztA-Gln-dAla-NH2] |
| −0.008 | 23.8 µM | 10 nM | 10 nM | – | – | – | – | CC(=O)N1CCC[C@]12CC=CCCCC1(CCCC=CCCCOC(=O)N3CC[C@@](C(=O)N[C@@H](Cc4ccsc4)C(=O)N[C@@H](Cc4csc5ccccc45)C(=O)N[C@@H](CCC(N)=O)C(=O)NCCCCCCN)(C3)NC(=O)[C@H](CC(N)=O)NC(=O)[C@H](Cc3ccccc3)NC(=O)[C@H](C)NC(=O)[C@H](C)NC(=O)[C@H](CC(=O)O)NC(=O)[C@H](CC(=O)O)NC1=O)NC(=O)[C@H](CC(C)(C)C)NC(=O)[C@H](CC(=O)O)NC2=O (stereo partly drawn) [I-881, Ac-PL3-Asp-Npg-B5-Asp-Asp-Ala-Ala-Phe-Asn-PyrS2-3Thi-BztA-Gln-6AmHex] |
| – | 6.8 µM | – | 17 nM | 2.45 | – | – | – | CC(=O)N1CCC[C@]12CC=CCCCC1(CCCC=CCCCOC(=O)N3CC[C@@](C(=O)N[C@@H](Cc4ccsc4)C(=O)N[C@@H](Cc4csc5ccccc45)C(=O)N[C@@H](CCC(N)=O)C(N)=O)(C3)NC(=O)[C@H](CC(C)C)NC(=O)[C@H](Cc3ccccc3)NC(=O)[C@H](C)NC(=O)[C@H](C)NC(=O)[C@H](CC(N)=O)NC(=O)[C@H](CC(=O)O)NC1=O)NC(=O)[C@H](CC(C)(C)C)NC(=O)[C@H](CC(=O)O)NC2=O (stereo partly drawn) [I-856, Ac-PL3-Asp-Npg-B5-Asp-Asn-Ala-Ala-Phe-Leu-PyrS2-3Thi-BztA-Gln-NH2] |
| – | – | – | 8 nM | 2.48 | 3.6 µM | – | 4.6 µM | CC(=O)N1CCC[C@]12CC=CCCCC1(CCCC=CCCCOC(=O)N3CC[C@@](C(=O)N[C@@H](Cc4ccsc4)C(=O)N[C@@H](Cc4csc5ccccc45)C(=O)N[C@@H](CCC(N)=O)C(N)=O)(C3)NC(=O)[C@H](CC(C)C)NC(=O)[C@H](Cc3ccccc3)NC(=O)[C@H](C)NC(=O)[C@H](C)NC(=O)[C@H](Cc3ccccc3C(=O)O)NC(=O)[C@H](CC(=O)O)NC1=O)NC(=O)[C@H](CC(C)(C)C)NC(=O)[C@H](CC(=O)O)NC2=O (stereo partly drawn) [I-854, Ac-PL3-Asp-Npg-B5-Asp-2COOHF-Ala-Ala-Phe-Leu-PyrS2-3Thi-BztA-Gln-NH2] |
